Results reported in patent US20220315578A1, “BRD9 BIFUNCTIONAL DEGRADERS AND THEIR METHODS OF USE” (NOVARTIS AG, priority 2019, published 2022).

Target: T1, BRD9-GFP (Homo sapiens, UniProt Q9H8M2)
T1 construct: CHYSEL (2A cis-acting hydrolase element) remnant after GFP; mCherry is split off as a separate protein (C); expressed in transfected cells; host or cells: HEK293A cells (Invitrogen R70507), lentiviral transduction with pLenti6-BRD9-GFP-CHYSEL-mCherry, blasticidin selection
T1 sequence (Q9H8M2 1-597): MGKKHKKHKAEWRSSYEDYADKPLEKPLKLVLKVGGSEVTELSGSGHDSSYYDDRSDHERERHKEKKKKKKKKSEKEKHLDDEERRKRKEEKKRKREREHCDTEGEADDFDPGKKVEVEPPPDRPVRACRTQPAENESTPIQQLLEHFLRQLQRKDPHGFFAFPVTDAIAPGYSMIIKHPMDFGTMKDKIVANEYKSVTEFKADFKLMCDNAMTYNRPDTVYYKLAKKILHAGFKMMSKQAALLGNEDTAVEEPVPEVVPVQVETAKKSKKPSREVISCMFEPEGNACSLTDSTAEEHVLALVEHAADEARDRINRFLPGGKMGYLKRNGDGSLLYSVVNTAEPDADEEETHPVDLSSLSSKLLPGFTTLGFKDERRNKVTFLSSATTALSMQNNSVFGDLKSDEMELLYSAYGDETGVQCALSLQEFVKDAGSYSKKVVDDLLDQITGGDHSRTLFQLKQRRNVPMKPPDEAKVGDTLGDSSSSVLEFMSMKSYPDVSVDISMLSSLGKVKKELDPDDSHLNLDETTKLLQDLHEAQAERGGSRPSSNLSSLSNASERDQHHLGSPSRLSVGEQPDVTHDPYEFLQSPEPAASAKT
Experiment: BRD9-GFP protein abundance flow cytometry assay in HEK293A cells
Format: cell-based
Settings: HEK293A-BRD9-GFP-CHYSEL-mCherry cells; for BRD9 Deg Amax %: 24 h, % protein remaining at the concentration at which maximum degradation is seen; for DC50: 24 h at 37° C., 10-point 1:3 dilution, concentration at which 50% maximal degradation was observed
Method: Compounds of the invention were tested in the following cellular assays. The terms in Table 1 are defined as follows: DC50 refers to the concentration at which 50% maximal degradation was observed; deg Amax is the extent of degradation and the value refers to the % protein remaining at the concentration at which maximum degradation is seen.
BRD9-GFP protein abundance flow cytometry assay in HEK293A cells: Degradation of BRD9 was measured in HEK293A cells expressing BRD9-GFP and mCherry from a stably integrated second generation bicistronic BRD9-GFP-CHYSELmCherry construct. Reduction of the GFP signal measured by flow cytometry served as readout for BRD9 degradation after degrader treatment.
The bicistronic BRD9-GFP-CHYSEL-mCherry construct is based on a pLenti6-DEST vector backbone where a GFP-CHYSEL-mCherry cassette was synthesized and inserted downstream of the DEST cassette by Gibson assembly resulting in the new gateway compatible vector pLenti6-DEST-GFP-CHYSEL-mCherry to allow Gateway cloning with pENTR221-BRD9 (w/o ATG) to obtain the final sensor construct pLenti6-BRD9-GFP-CHYSEL-mCherry.
HEK293 Å-BRD9-GFP-CHYSEL-mCherry sensor cells were generated by lentiviral vector transduction using the pLenti6-BRD9-GFP-CHYSEL-mCherry sensor construct described before. […] The mix was incubated for another 20 min at RT and then added to 1 ml of a freshly prepared suspension of HEK293FT cells in a well of a 6-well plate (concentration 1.2×10^6 cells/ml). 1 day after transfection, the medium was replaced with 1.5 ml of complete growth medium (DMEM high Glucose+10% FCS+1% L-Glutamine+1% NEAA+1% NaPyr.). 48 h post transfection supernatant containing viral transducing particles was collected and frozen at −80° C. […] Infection was performed with […] of collected supernatant containing viral transducing particles in 1 ml medium including 8 μg/ml polybrene. 24 h post infection, stably transfected cells were selected with blasticidin at a concentration of 8 μg/ml.
Stable HEK293 Å-BRD9-GFP-CHYSEL-mCherry cells were maintained in complete growth medium (DMEM high Glucose+10% FCS+1% L-Glutamine+1% NEAA+1% NaPyr.) with passaging performed twice per week. On Day 0, HEK293 Å-BRD9-GFP-CHYSEL-mCherry cells were seeded at 10,000 cells/well in a 96-well microtiter plate in […] complete medium. On Day 1, cells were treated in duplicate with 10-point 1:3 dilution series of compound using the HP D300 Digital Dispenser (Tecan). DMSO concentrations were normalized across the plate to 0.1%. On Day 2, after 24 h of incubation at 37° C., treatment media was discarded, cells rinsed with 100 ul/well PBS and then detached using 40 ul trypsin/well for 5 min. Trypsin was neutralized with 100 ul/well PBS+20% FCS). Flow cytometry was performed on the samples using the Beckman Coulter CytoFLEX flow cytometer. Cell identification was then performed using forward (FSC) vs. side scatter (SSC) plots. Single cell discrimination is performed using FSC-Width (FSC-W) vs. FSC-Height (FSC-H) plots. Median GFP/mCherry ratio values for 5,000 single cells are used to determine BRD9 levels. Median GFP/mCherry ratio values from HEK293 Å-mCherry are used as a background signal and thus defining 0% BRD9 signal. Median GFP/mCherry ratio values from DMSO treated HEK293 Å-BRD9-GFP-CHYSEL-mCherry are used to define 100% BRD9 signal for subsequent DC50 curves (concentration at 50% BRD9 degradation). Concentration response curves plotting relative reduction of the GFP/mCherry ratio signal (measured by flow cytometry) versus 10 compound concentrations (starting concentration […], 3 fold dilution steps) of the compounds allowed generation of DC50 values. Data is shown in Tables 2 and 3, in which, DC50 refers to the concentration at which 50% maximal degradation was observed; deg Amax is the extent of degradation and the value refers to the % protein remaining at the concentration at which maximum degradation is seen.

| Compound | BRD9 Deg Amax % [%] | DC50 [nM] |
| --- | --- | --- |
| COc1cc(-c2cn(C)c(=O)c(C)c2C)ccc1CN1CCN(CC2CCN(C(=O)c3cccc(N4CCC(=O)NC4=O)c3)CC2)CC1 [Compound A15, 1-(3-(4-((4-(2-Methoxy-4-(1,4,5-trimethyl-6-oxo-1,6-dihydropyridin-3-yl)benzyl)piperazin-1-yl)methyl)piperidine-1-carbonyl)phenyl)dihydropyrimidine-2,4(1H,3H)-dione] | 29.47 | 49 |
| COc1cc(-c2cc(C)c(=O)n(C)c2)c(OC)cc1CN1CCC(OC2CCN(C(=O)c3cccc(N4CCC(=O)NC4=O)c3)CC2)CC1 [Compound A16, 1-(3-(4-((1-(4-(1,5-Dimethyl-6-oxo-1,6-dihydropyridin-3-yl)-2,5-dimethoxybenzyl)piperidin-4-yl)oxy)piperidine-1-carbonyl)phenyl)dihydropyrimidine-2,4(1H,3H)-dione] | 6.37 | 32 |
| COc1cc(-c2cn(C)c(=O)c(C)c2C)c(OC)cc1CN1CCC(OC2CCN(C(=O)c3ccc(Cl)c(N4CCC(=O)NC4=O)c3)CC2)CC1 [Compound A18, 1-(2-Chloro-5-(4-((1-(2,5-dimethoxy-4-(1,4,5-trimethyl-6-oxo-1,6-dihydropyridin-3-yl)benzyl)piperidin-4-yl)oxy)piperidine-1-carbonyl)phenyl)dihydropyrimidine-2,4(1H,3H)-dione] | 11.83 | 15 |
| COc1cc(-c2cn(C)c(=O)c3cnccc23)c(OC)cc1OC1CCN(CC2CCN(C(=O)c3ccc(OC)c(N4CCC(=O)NC4=O)c3)CC2)CC1 [Compound A20, 1-(5-(4-((4-(2,5-Dimethoxy-4-(2-methyl-1-oxo-1,2-dihydro-2,7-naphthyridin-4-yl)phenoxy)piperidin-1-yl)methyl)piperidine-1-carbonyl)-2-methoxyphenyl)dihydropyrimidine-2,4(1H,3H)-dione] | 9.75 | 14 |
| COc1cc(-c2cn(C)c(=O)c3cnccc23)c(OC)cc1CN1CCN(CC2CCN(C(=O)c3ccc(OC)c(N4CCC(=O)NC4=O)c3)CC2)CC1 [Compound A23, 1-(5-(4-((4-(2,5-Dimethoxy-4-(2-methyl-1-oxo-1,2-dihydro-2,7-naphthyridin-4-yl)benzyl)piperazin-1-yl)methyl)piperidine-1-carbonyl)-2-methoxyphenyl)dihydropyrimidine-2,4(1H,3H)-dione] | 10.64 | 16 |
| COc1ccc(C(=O)N2CCC(CN3CCN(Cc4c(OC)cc(-c5cn(C)c(=O)c6cnccc56)cc4OC)CC3)CC2)cc1N1CCC(=O)NC1=O [Compound A24, 1-(5-(4-((4-(2,6-Dimethoxy-4-(2-methyl-1-oxo-1,2-dihydro-2,7-naphthyridin-4-yl)benzyl)piperazin-1-yl)methyl)piperidine-1-carbonyl)-2-methoxyphenyl)dihydropyrimidine-2,4(1H,3H)-dione] | 13.31 | 27 |
| COc1cc(-c2cn(C)c(=O)c3cnccc23)c(OC)cc1/C=C/C(=O)N1CCC(OC2CCN(C(=O)c3ccc(OC)c(N4CCC(=O)NC4=O)c3)CC2)CC1 [Compound A27, (E)-1-(5-(4-((1-(3-(2,5-dimethoxy-4-(2-methyl-1-oxo-1,2-dihydro-2,7-naphthyridin-4-yl)phenyl)acryloyl)piperidin-4-yl)oxy)piperidine-1-carbonyl)-2-methoxyphenyl)dihydropyrimidine-2,4(1H,3H)-dione] | 12.02 | 49 |

These reach a lower DC50. Values come first.

| BRD9 Deg Amax % [%] | DC50 [nM] | Compound |
| --- | --- | --- |
| 33.06 | 3 | COc1cc(-c2cn(C)c(=O)c(C)c2C)ccc1CN1CCN(CC2CCN(C(=O)c3ccc(Cl)c(N4CCC(=O)NC4=O)c3)CC2)CC1 [Compound A14, 1-(2-Chloro-5-(4-((4-(2-methoxy-4-(1,4,5-trimethyl-6-oxo-1,6-dihydropyridin-3-yl)benzyl)piperazin-1-yl)methyl)piperidine-1-carbonyl)phenyl)dihydropyrimidine-2,4(1H,3H)-dione] |
| 32.92 | 11 | COc1ccc(C(=O)N2CCC(CN3CCC(Oc4ccc(-c5cn(C)c(=O)c6cnccc56)cc4Cl)CC3)CC2)cc1N1CCC(=O)NC1=O [Compound A17, 1-(5-(4-((4-(2-Chloro-4-(2-methyl-1-oxo-1,2-dihydro-2,7-naphthyridin-4-yl)phenoxy)piperidin-1-yl)methyl)piperidine-1-carbonyl)-2-methoxyphenyl)dihydropyrimidine-2,4(1H,3H)-dione] |
| 17.02 | 3 | COc1cc(-c2cn(C)c(=O)c(C)c2C)cc(OC)c1OCC1CCN(CC2CCN(C(=O)c3ccc(Cl)c(N4CCC(=O)NC4=O)c3)CC2)CC1 [Compound A19, 1-(2-Chloro-5-(4-((4-((2,6-dimethoxy-4-(1,4,5-trimethyl-6-oxo-1,6-dihydropyridin-3-yl)phenoxy)methyl)piperidin-1-yl)methyl)piperidine-1-carbonyl)phenyl)dihydropyrimidine-2,4(1H,3H)-dione] |
| 12.12 | 1 | COc1cc(-c2cn(C)c(=O)c(C)c2C)cc(OC)c1CCN1CCC(OC2CCN(C(=O)c3ccc(Cl)c(N4CCC(=O)NC4=O)c3)CC2)CC1 [Compound A21, 1-(2-Chloro-5-(4-((1-(2,6-dimethoxy-4-(1,4,5-trimethyl-6-oxo-1,6-dihydropyridin-3-yl)phenethyl)piperidin-4-yl)oxy)piperidine-1-carbonyl)phenyl)dihydropyrimidine-2,4(1H,3H)-dione] |
| 11.18 | 6 | COc1cc(-c2cn(C)c(=O)c(C)c2C)cc(OC)c1CCN1CCC(OC2CCN(C(=O)c3cccc(N4CCC(=O)NC4=O)c3)CC2)CC1 [Compound A22, 1-(3-(4-((1-(2,6-Dimethoxy-4-(1,4,5-trimethyl-6-oxo-1,6-dihydropyridin-3-yl)phenethyl)piperidin-4-yl)oxy)piperidine-1-carbonyl)phenyl)dihydropyrimidine-2,4(1H,3H)-dione] |
| 18.22 | 10 | COc1cc(-c2cn(C)c(=O)c3cnccc23)cc(OC)c1CCN1CCC(OC2CCN(C(=O)COc3ccc(N4CCC(=O)NC4=O)cc3)CC2)CC1 [Compound A25, 1-(4-(2-(4-((1-(2,6-Dimethoxy-4-(2-methyl-1-oxo-1,2-dihydro-2,7-naphthyridin-4-yl)phenethyl)piperidin-4-yl)oxy)piperidin-1-yl)-2-oxoethoxy)phenyl)dihydropyrimidine-2,4(1H,3H)-dione] |
